Source: the supplement of paper PMC10307832

Legend:
Assay in all cases: relative viability (nuclei count vs DMSO), 5 days (fraction); higher = more cells survive
[1] = compound: C1=CC2=NC=CN=C2C=C1/C=C/3\C(=O)NC(=O)S3 + N=C(N)NC(=N)NCCc1ccccc1 [Phenformin] (partner 250 µM)
How it was run: (§1)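 For relative viability, nuclei counts in treated wells were divided by those in vehicle wells. Lung cancer cell lines had been pin-tool dosed in 1536-well plates the day after seeding and cultured for 5 days, then fixed and stained in one step (final 0.05% Triton X-100, 1% formaldehyde, 1 ug/ml Hoechst) and imaged at 4×. Doses were one drug alone or a fixed anchor-drug dose plus five library-drug doses (not always all listed) in √10 steps, and values are duplicate-plate medians.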

BGJ398 + Luminespib = compound: CCN1CCN(c2ccc(Nc3cc(N(C)C(=O)Nc4c(Cl)c(OC)cc(OC)c4Cl)ncn3)cc2)CC1 [BGJ398] + CCNC(=O)c1noc(-c2cc(C(C)C)c(O)cc2O)c1-c1ccc(CN2CCOCC2)cc1 [Luminespib] (partner 0.01 µM)
How it was run: as §1

BGJ398 + Alpelisib = compound: CCN1CCN(c2ccc(Nc3cc(N(C)C(=O)Nc4c(Cl)c(OC)cc(OC)c4Cl)ncn3)cc2)CC1 [BGJ398] + Cc1nc(NC(=O)N2CCC[C@H]2C(N)=O)sc1-c1ccnc(C(C)(C)C(F)(F)F)c1 [Alpelisib] (partner 2 µM)
How it was run: as §1

[2] = compound: C1=CC2=NC=CN=C2C=C1/C=C/3\C(=O)NC(=O)S3 + CC1(C)CCC(c2ccc(Cl)cc2)=C(CN2CCN(c3ccc(C(=O)NS(=O)(=O)c4ccc(N[C@H](CCN5CCOCC5)CSc5ccccc5)c(S(=O)(=O)C(F)(F)F)c4)cc3)CC2)C1 [Navitoclax] (partner 0.5 µM)
How it was run: as §1

Cell Line | relative viability ([1]; first compound 0.02 µM) | relative viability ([1]; first compound 0.06325 µM) | relative viability ([1]; first compound 0.2 µM) | relative viability ([1]; first compound 0.6325 µM) | relative viability ([1]; first compound 2 µM) | relative viability (BGJ398 + Luminespib; first compound 0.01 µM) | relative viability (BGJ398 + Luminespib; first compound 0.03162 µM) | relative viability (BGJ398 + Luminespib; first compound 0.1 µM) | relative viability (BGJ398 + Luminespib; first compound 0.3162 µM) | relative viability (BGJ398 + Luminespib; first compound 1 µM) | relative viability (BGJ398 + Alpelisib; first compound 0.01 µM) | relative viability (BGJ398 + Alpelisib; first compound 0.03162 µM) | relative viability (BGJ398 + Alpelisib; first compound 0.1 µM) | relative viability (BGJ398 + Alpelisib; first compound 0.3162 µM) | relative viability (BGJ398 + Alpelisib; first compound 1 µM) | relative viability ([2]; first compound 0.02 µM) | relative viability ([2]; first compound 0.06325 µM) | relative viability ([2]; first compound 0.2 µM) | relative viability ([2]; first compound 0.6325 µM) | relative viability ([2]; first compound 2 µM)
NCI-H2405 | 0.44 | 0.406 | 0.397 | 0.383 | 0.111 | 0.818 | 0.807 | 0.668 | 0.758 | 0.686 | 0.723 | 0.932 | 0.831 | 0.79 | 0.875 | 0.751 | 1.14 | 0.938 | 0.947 | 0.755
NCI-H3122 | 0.401 | 0.356 | 0.379 | 0.392 | 0.366 | 0.0895 | 0.0973 | 0.0991 | 0.0908 | 0.0986 | 0.835 | 0.844 | 0.763 | 0.717 | 0.832 | 1.06 | 0.997 | 0.973 | 1.01 | 1.08
PC-3 [JPC-3] | 0.478 | 0.542 | 0.467 | 0.487 | 0.487 | 0.63 | – | 0.737 | 0.721 | 0.712 | 1.05 | – | 1.04 | 0.948 | 0.973 | 0.744 | 0.765 | 0.783 | 0.749 | 0.766
PC-14 | 0.718 | 0.719 | 0.641 | 0.649 | 0.452 | 0.151 | – | 0.119 | – | 0.134 | 0.824 | 0.845 | 0.98 | 0.958 | 0.938 | 0.871 | 1 | 1 | 1 | 1.08
RERF-LC-KJ | 0.399 | 0.467 | 0.406 | 0.392 | 0.418 | 1.23 | 1.25 | 1.32 | 1.26 | 1.31 | 0.922 | 0.85 | 0.816 | 0.833 | 0.79 | 0.69 | 0.897 | 1.01 | 0.863 | 0.826
SK-LU-1 | 0.681 | 0.628 | 0.552 | 0.554 | 0.395 | 0.215 | 0.193 | 0.189 | 0.188 | 0.197 | 0.939 | 0.885 | 1.02 | 0.971 | 0.796 | 0.84 | 0.765 | 1.02 | 0.854 | 0.868
SK-MES-1 | 0.623 | 0.697 | 0.713 | 0.626 | 0.645 | 0.8 | 0.784 | 0.843 | 0.799 | 0.844 | 0.826 | 1 | 0.815 | 0.866 | 0.57 | – | 1.4 | 1.3 | 1.21 | 1.23
SW 1573 | 0.377 | 0.443 | 0.429 | 0.323 | 0.287 | 0.323 | 0.242 | 0.209 | 0.226 | 0.278 | 0.689 | 0.961 | 0.765 | 0.761 | 0.789 | 0.879 | 1.05 | 1.05 | 0.866 | 0.945
